Columns and labels:
human 5HT6 = target: T1, human 5HT6 (Homo sapiens, UniProt P50406); assay: Radioligand binding, 5-HT6 receptor; settings: for Ki: Table 7, read-out: h5HT6 Ki; for selectivity ratio h5HT6: Table 8, Ki h5HT6 divided by Ki hGAL3
T1 construct: expressed in transfected cells
Description: Other 5-HT Receptors: Other serotonin receptor binding assays were performed according to published methods: rat 5HT2C receptor (Julius et al., 1988); and 5-HT6 (Monsma, et al., 1993). The binding assays using the 5-HT4 receptor were performed according to the procedures described in U.S. Patent No. 5,766,879, the disclosure of which is hereby incorporated by reference in its entirety into this application.
(§1) Binding data were analyzed using nonlinear regression and statistical techniques available in the GraphPAD Prism package (San Diego, CA). Enzymatic assay data were derived from a standard curve of reference compound data.

Human 5HT2A Receptor = target: T2, Human 5HT2A Receptor (Homo sapiens, UniProt P28223); assay: Radioligand binding, 5HT2A receptor ([3H]ketanserin); settings: for Ki: Table 7, read-out: h5HT2A Ki; for selectivity ratio h5HT2A: Table 8, Ki h5HT2A divided by Ki hGAL3
T2 construct: expressed in transfected cells; host or cells: COS-7 cells (pCEXV-3 vector, DEAE-dextran)
T2 sequence (P28223 whole entry): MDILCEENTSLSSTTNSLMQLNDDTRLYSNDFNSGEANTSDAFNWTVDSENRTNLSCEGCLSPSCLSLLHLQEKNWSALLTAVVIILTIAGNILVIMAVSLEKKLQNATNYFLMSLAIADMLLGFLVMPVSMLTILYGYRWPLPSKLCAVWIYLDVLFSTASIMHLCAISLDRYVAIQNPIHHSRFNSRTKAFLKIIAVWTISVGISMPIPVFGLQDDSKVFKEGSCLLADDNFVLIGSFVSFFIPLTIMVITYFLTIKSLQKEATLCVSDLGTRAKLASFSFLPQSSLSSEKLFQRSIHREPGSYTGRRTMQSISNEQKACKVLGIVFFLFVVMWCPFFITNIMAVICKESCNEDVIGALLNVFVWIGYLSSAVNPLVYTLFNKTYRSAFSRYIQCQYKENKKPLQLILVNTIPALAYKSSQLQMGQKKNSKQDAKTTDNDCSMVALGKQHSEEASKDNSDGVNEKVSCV
Description: Human 5HT2A Receptor: The coding sequence of the human 5HT2A receptor was obtained from a human brain cortex cDNA library, and cloned into the cloning site of pCEXV-3 eukaryotic expression vector. This construct was transfected into COS-7 cells by the DEAE-dextran method (Cullen, 1987). Cells were harvested after 72 hours and lysed by sonication in 5 mM Tris-HCl, 5 mM EDTA, pH 7.5. The cell lysates were subjected to centrifugation at 1000 rpm for 5 minutes at 4°C, and the supernatant was subjected to centrifugation at 30,000 x g for 20 minutes at 4°C. The pellet was suspended in 50 mM Tris-HCl buffer (pH 7.7 at room temperature) containing 10 mM MgS04, 0.5 mM EDTA, and 0.1% ascorbate. The affinity of compounds at 5HT2A receptors were determined in equilibrium competition binding assays using [^3H]ketanserin (1 nM). Nonspecific binding was defined by the addition of 10 µM mianserin. The bound radioligand was separated by filtration through GF/B filters using a cell harvester.
as §1

human dopamine D1 = target: T3, human dopamine D1 (Homo sapiens, UniProt P21728); assay: Radioligand binding, dopamine D1 receptor; settings: for Ki: Table 9, read-out: hD1 Ki; for selectivity ratio hD1: Table 10, Ki hD1 divided by Ki hGAL3
T3 construct: purchased BioSignal, Inc. (Montreal, Canada); host or cells: membranes of cells expressing the receptor
T3 sequence (P21728 whole entry): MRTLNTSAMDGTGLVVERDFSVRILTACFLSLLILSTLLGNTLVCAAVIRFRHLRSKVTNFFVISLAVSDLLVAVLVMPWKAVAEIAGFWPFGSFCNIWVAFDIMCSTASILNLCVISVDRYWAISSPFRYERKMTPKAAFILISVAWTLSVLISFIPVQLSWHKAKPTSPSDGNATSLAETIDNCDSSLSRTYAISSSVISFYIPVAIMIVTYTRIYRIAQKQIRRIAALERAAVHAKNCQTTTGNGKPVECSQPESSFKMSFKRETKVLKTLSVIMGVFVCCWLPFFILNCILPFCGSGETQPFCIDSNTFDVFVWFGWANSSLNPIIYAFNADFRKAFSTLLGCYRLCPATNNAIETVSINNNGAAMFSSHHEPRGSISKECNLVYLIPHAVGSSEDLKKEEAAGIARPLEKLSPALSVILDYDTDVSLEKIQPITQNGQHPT
From the text: (§2) Other receptors: Cell membranes expressing human dopamine D1, D2, D4 and rat D3 receptors were purchased through BioSignal, Inc. (Montreal, Canada). Binding assays using the histamine H1 receptor; dopamine receptors; and α1A, α1E, and α2 adrenergic receptors may be carried out according to the procedures described in U.S. Patent No. 5,780,485, the disclosure of which is hereby incorporated by reference in its entirety into this application. Binding assays using the dopamine D5 receptor may be carried out according to the procedures described in U.S. Patent No. 5,882,855, the disclosure of which is hereby incorporated by reference in its entirety into this application. Binding assays for the human α1D adrenergic receptor may be carried out according to the procedures described in U.S. Patent No. 6,156,518, the disclosure of which is hereby incorporated by reference in its entirety into this application.
as §1

human dopamine D2 = target: T4, human dopamine D2 (Homo sapiens, UniProt P14416); assay: Radioligand binding, dopamine D2 receptor; settings: for Ki: Table 9, read-out: hD2 Ki; for selectivity ratio hD2: Table 10, Ki hD2 divided by Ki hGAL3
T4 construct: purchased BioSignal, Inc. (Montreal, Canada)
T4 sequence (P14416 whole entry): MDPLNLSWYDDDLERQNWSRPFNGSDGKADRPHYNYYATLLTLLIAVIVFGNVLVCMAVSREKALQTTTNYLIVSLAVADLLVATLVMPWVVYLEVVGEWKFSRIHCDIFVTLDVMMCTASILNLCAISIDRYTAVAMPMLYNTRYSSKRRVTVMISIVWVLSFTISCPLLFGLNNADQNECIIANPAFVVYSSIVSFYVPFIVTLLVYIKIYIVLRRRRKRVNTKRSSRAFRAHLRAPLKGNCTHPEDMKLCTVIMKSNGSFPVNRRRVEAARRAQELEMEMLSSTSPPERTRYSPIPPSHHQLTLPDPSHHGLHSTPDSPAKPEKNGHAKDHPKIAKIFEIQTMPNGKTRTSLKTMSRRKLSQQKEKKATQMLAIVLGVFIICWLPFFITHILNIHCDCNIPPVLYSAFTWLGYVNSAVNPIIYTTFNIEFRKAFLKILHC
From the text: as §2, §1

human α2B adrenoceptor = target: T5, human α2B adrenoceptor (Homo sapiens, UniProt P18089); assay: Radioligand binding, α2B adrenergic receptor; settings: for Ki: Table 9, read-out: hα2B Ki; for selectivity ratio hα2B: Table 10, Ki hα2B divided by Ki hGAL3
T5 construct: expressed in transfected cells
T5 sequence (P18089 1-450): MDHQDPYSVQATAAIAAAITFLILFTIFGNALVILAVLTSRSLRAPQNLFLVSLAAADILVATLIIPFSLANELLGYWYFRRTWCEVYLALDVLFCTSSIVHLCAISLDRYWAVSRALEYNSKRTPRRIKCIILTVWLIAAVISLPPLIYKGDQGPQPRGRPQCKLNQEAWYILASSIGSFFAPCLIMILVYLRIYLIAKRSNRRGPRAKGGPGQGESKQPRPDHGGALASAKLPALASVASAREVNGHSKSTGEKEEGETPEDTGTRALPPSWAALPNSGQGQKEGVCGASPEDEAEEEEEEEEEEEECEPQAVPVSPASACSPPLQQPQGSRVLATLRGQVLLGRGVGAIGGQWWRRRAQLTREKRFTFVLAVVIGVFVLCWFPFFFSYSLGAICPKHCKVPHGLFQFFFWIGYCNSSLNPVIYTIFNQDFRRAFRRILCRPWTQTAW
From the text: as §2, §1

human α2C adrenoceptor = target: T6, human α2C adrenoceptor (Homo sapiens, UniProt P18825); assay: Radioligand binding, α2C adrenergic receptor; settings: for Ki: Table 9, read-out: hα2C Ki; for selectivity ratio hα2C: Table 10, Ki hα2C divided by Ki hGAL3
T6 construct: expressed in transfected cells
T6 sequence (P18825 1-462): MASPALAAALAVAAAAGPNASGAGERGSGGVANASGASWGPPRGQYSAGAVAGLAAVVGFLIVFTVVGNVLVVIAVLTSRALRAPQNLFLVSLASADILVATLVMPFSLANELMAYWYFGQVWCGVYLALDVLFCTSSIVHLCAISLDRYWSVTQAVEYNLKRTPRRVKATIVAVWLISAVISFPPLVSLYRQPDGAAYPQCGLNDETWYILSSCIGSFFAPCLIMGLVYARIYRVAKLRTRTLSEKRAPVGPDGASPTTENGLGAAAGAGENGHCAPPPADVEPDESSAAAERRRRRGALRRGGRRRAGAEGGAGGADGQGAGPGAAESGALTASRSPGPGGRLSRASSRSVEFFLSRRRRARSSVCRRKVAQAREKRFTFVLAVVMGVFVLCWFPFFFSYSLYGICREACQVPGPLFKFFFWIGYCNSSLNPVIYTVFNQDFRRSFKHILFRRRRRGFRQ
From the text: as §2, §1

DA transporter = DA transporter (Rattus norvegicus, UniProt P23977); assay: Binding at native DA transporter; settings: for Ki: Table 7, native transporter, head prints r (rat), read-out: rDA Uptk Ki; for selectivity ratio rDA Uptk: Table 8, Ki rDA Uptk divided by Ki hGAL3
Sequence of DA transporter (P23977 whole entry): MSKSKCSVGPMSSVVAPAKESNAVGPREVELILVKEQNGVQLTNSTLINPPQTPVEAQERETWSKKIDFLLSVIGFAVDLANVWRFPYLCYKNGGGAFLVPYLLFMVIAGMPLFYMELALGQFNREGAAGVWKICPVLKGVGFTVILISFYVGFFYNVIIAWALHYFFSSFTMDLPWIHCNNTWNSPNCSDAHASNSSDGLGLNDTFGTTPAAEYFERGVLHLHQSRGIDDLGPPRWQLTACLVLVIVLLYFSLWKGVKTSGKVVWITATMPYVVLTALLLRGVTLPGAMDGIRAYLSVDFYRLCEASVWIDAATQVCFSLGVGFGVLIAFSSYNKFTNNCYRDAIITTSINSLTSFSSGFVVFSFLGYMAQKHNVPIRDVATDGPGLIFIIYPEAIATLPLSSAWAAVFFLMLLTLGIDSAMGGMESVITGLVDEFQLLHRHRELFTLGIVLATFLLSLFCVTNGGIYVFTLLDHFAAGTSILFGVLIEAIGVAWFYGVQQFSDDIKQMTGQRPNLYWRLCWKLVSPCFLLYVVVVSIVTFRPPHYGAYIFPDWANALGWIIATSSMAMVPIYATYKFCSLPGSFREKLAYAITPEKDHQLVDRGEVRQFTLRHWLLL
Description: The binding properties of the compounds of the present invention were evaluated at one or more cloned receptors or native, tissue-derived transporters, using protocols described below.
The methods to determine binding affinity at native transporters are described in the following publications: 5HT transporter and NE transporter (Owens et al., 1997), and DA transporter (Javitch et al, 1984).
as §1

T1 sequence (P50406 whole entry): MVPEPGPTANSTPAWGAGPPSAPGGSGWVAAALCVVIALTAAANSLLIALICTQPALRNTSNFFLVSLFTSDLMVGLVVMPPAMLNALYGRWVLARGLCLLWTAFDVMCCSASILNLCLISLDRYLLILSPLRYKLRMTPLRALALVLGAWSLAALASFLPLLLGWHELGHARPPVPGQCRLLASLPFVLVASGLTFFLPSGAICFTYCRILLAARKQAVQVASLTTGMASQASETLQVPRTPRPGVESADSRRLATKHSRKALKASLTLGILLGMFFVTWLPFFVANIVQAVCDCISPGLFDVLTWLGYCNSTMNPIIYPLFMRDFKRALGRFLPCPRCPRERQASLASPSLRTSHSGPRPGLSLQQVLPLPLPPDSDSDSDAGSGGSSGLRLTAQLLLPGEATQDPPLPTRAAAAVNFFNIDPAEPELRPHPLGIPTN

Compound | Ki (human 5HT6) [µM] | selectivity ratio h5HT6 (human 5HT6) | Ki (Human 5HT2A Receptor) [µM] | selectivity ratio h5HT2A (Human 5HT2A Receptor) | Ki (human dopamine D1) [µM] | selectivity ratio hD1 (human dopamine D1) | Ki (human dopamine D2) [µM] | selectivity ratio hD2 (human dopamine D2) | Ki (human α2B adrenoceptor) [µM] | selectivity ratio hα2B (human α2B adrenoceptor) | Ki (human α2C adrenoceptor) [µM] | selectivity ratio hα2C (human α2C adrenoceptor) | Ki (DA transporter) [µM] | selectivity ratio rDA Uptk (DA transporter)
CN(CCc1c[nH]c2ccccc12)c1nc(Nc2ccc(F)c(F)c2)cc(N2CCCCC2)n1 [Example 15] | 1.46 | 20 | 11.3 | >100 | 0.344 | 5 | 2.18 | 30 | 24.5 | >100 | 8.2 | >100 | 24.5 | >100
O=C1C(=Nc2ccc(Cl)cc2)c2ccccc2N1c1ccccc1 [Example 97, 3-[(4-CHLOROPHENYL)IMINO]-1-PHENYL-1,3-DIHYDRO-2H-INDOL-2-ONE] | 29.1 | >100 | > 50 | >100 | 25.1 | >100 | > 50 | >100 | > 50 | >100 | > 50 | >100 | 8.44 | >100
O=C1C(=Nc2ccc(Br)cc2)c2ccccc2N1c1ccccc1 [Example 98, 3-[(4-BROMOPHENYL)IMINO]-1-PHENYL-1,3-DIHYDRO-2H-INDOL-2-ONE] | 14 | >100 | > 50 | >100 | 2.52 | >30 | 3.79 | >100 | > 50 | >100 | > 50 | >100 | 7.43 | >100
Cc1ccc(Nc2cc(N3CCCCC3)nc(N(C)CCc3c[nH]c4ccccc34)n2)cc1 [Example 11] | 0.8 | 9 | 6.71 | >30 | 0.079 | 0.9 | 0.782 | 9 | 10.2 | >100 | 3 | >30 | 5.43 | >30
Cc1ccc(Nc2cc(N3CCCCC3)nc(N3CCN(c4ncccc4C(F)(F)F)CC3)n2)cc1 [Example 34] | 38.9 | >100 | – | >100 | 0.29 | 13 | 2.5 | >100 | 15.5 | >100 | 8.83 | >100 | 3.9 | >100
O=C1C(=Nc2ccc(C(F)(F)F)cc2)c2ccccc2N1c1ccccc1 [Example 95, 1-PHENYL-3-[[4-(TRIFLUOROMETHYL)PHENYL]IMINO]-1,3-DIHYDRO-2H-INDOL-2-ONE] | 21.5 | >100 | > 50 | >100 | 4.39 | >100 | 9.72 | >100 | > 50 | >100 | 48.6 | >100 | 12 | >100
COc1cccc(Nc2cc(N3CCCCC3)nc(N(C)CCc3c[nH]c4ccccc34)n2)c1 [Example 17] | 0.711 | 8 | 7.16 | >30 | 0.516 | 6 | 1.81 | 21 | 38.7 | >100 | 10.3 | >100 | 27.2 | >100
CN(C)c1cc(Nc2ccc(Cl)c(Cl)c2)nc(Nc2ccccc2)n1 [Example 60] | 47.5 | >100 | 26.1 | >100 | 0.6 | 7 | 26.8 | >100 | > 50 | >100 | 7.2 | >30 | 14.5 | >100
O=C1C(=Nc2cccc(C(F)(F)F)c2)c2ccccc2N1c1ccccc1 [Example 92, 1-PHENYL-3- [[3-(TRIFLUOROMETHYL)PHENYL]IMINO]-1,3-DIHYDRO-2H-INDOL-2-ONE] | – | >100 | – | >100 | – | >100 | – | >100 | – | >100 | – | >100 | – | >100
O=C1C(=Nc2cccc(Cl)c2)c2ccccc2N1c1ccccc1 [Example 94, 3-[(3-CHLOROPHENYL)IMINO]-1-PHENYL-1,3-DIHYDRO-2H-INDOL-2-ONE] | 3.65 | >30 | > 50 | >100 | 2.15 | >30 | 6.25 | >100 | 45.4 | >100 | 47.9 | >100 | 2.2 | >130
Cc1ccc(Nc2cc(N3CCCCC3)nc(N(C)CCc3ccccc3)n2)cc1 [Example 22] | 2.26 | >30 | 20.7 | >100 | 0.128 | 5 | 1.5 | >30 | 5.76 | >100 | 2.74 | >100 | 7.48 | >100

Reference: patent EP2140864A2 (H. Lundbeck A/S, priority 2001, dated 2002)
